Drawing on US9624213B2 (Plexxikon Inc., priority 2011, dated 2017), this text covers IC50 for four molecules.

Chain of B-Raf V600E (P15056 whole entry V600E): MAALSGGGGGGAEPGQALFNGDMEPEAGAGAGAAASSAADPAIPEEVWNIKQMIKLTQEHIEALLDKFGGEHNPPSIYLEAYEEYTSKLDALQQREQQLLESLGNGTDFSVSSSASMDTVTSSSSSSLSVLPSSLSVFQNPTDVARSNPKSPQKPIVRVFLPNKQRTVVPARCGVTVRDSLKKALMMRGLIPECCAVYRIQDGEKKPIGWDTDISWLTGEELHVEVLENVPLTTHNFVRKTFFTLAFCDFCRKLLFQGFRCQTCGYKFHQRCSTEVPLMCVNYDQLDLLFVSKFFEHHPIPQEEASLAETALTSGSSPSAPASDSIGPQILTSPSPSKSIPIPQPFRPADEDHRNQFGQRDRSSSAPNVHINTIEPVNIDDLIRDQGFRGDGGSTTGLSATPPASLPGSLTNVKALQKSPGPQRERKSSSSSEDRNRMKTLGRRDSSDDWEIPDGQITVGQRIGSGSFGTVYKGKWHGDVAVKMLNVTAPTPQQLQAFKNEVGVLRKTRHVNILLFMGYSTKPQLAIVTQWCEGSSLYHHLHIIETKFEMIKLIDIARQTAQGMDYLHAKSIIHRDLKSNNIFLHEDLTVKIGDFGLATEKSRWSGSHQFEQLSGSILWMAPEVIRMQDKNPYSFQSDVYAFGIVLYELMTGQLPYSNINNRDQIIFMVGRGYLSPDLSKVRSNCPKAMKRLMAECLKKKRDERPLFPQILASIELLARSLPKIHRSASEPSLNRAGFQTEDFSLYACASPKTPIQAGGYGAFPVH

The test concerns the target B-Raf V600E (Homo sapiens (Human), UniProt P15056, V600E). As to the kind of experiment: B-Raf V600E kinase biochemical activity (AlphaScreen, biotin-MEK1 substrate). To be noted: 100 μM ATP. On the procedure: Assays for biochemical and cell based activity are known in the art, for example, as described in PCT publication WO 2007/002433, the disclosure of which is hereby incorporated by reference as it relates to such assays. For example, the biochemical activity IC50 values are determined with respect to inhibition of B-Raf V600E kinase activity or p-Erk kinase activity, where inhibition of phosphorylation of a peptide substrate is measured as a function of compound concentration. Compounds to be tested are diluted in dimethyl sulfoxide to a concentration of 0.1 mM. These are serially diluted 15 μL into 30 μL of dimethyl sulfoxide seven times in 96 well plates for a total of 8 dilution points, and for each dilution point 1 μL is added to a well of an assay plate. Plates are prepared such that each well in a 384 well plate contains 1 μL of compound in 10 μL volume with 0.1 ng Raf enzyme (i.e. any of B-Raf, c-Raf-1 or B-Raf V600E, Upstate Biotechnology or prepared by methods known to one of skill in the art), 50 mM HEPES, pH 7.0, 50 mM NaCl, 2 mM MgCl2, 1 mM MnCl2, 0.01% Tween-20, 1 mM DTT, and 100 nM biotin-MEK1 as substrate. The reaction is started with addition of 10 μL of 200 μM ATP (i.e. final 100 μM ATP). After incubation of the kinase reaction for 45 minutes at room temperature, 5 μL/well of Stop Solution is added (25 mM Hepes pH 7.5, 100 mM EDTA, 0.01% BSA with donor beads (Streptavidin coated beads, Perkin Elmer), acceptor beads (Protein A coated, Perkin Elmer), and anti phosphor MEK1/2 antibody (CellSignal), each at final concentration 10 μg/mL). The plates are incubated for 3 hours at room temperature and read on Envision reader (Perkin Elmer). Phosphorylation of Mek1 results in binding of the anti-phosphor-MEK1/2antibody and association of the donor and acceptor beads such that signal correlates with kinase activity. The signal vs. compound concentration is used to determine the IC50.
The molecule `N#CC1(c2ccc(-c3cnc4[nH]cc(C(=O)c5c(F)ccc(NS(=O)(=O)N6CCCC6)c5F)c4c3)cc2)CC1` [Compound P-0248, N-[3-[5-[4-(1-cyanocyclopropyl)phenyl]-1H-pyrrolo[2,3-b]pyridine-3-carbonyl]-2,4-difluoro-phenyl]pyrrolidine-1-sulfonamide] came in with an IC50 of under 0.1 µM. Take `CCN(C)S(=O)(=O)Nc1ccc(F)c(C(=O)c2c[nH]c3ncc(-c4ccc(C5(C#N)CC5)cc4)cc23)c1F` [Compound P-0239, 5-[4-(1-cyanocyclopropyl)phenyl]-3-[3-[[ethyl(methyl)sulfamoyl]amino]-2,6-difluoro-benzoyl]-1H-pyrrolo[2,3-b]pyridine]: the IC50 is under 0.1 µM. With `CN(C)S(=O)(=O)Nc1ccc(F)c(C(=O)c2c[nH]c3ncc(-c4ccc(C5(C#N)CC5)cc4)cc23)c1F` [Compound P-0237, 5-[4-(1-cyanocyclopropyl)phenyl]-3-[3-(dimethylsulfamoylamino)-2,6-difluoro-benzoyl]-1H-pyrrolo[2,3-b]pyridine], the IC50 is under 0.1 µM. `Cn1cc(-c2cnc3[nH]cc(C(=O)c4cccc(NS(=O)(=O)CC5CC5)c4F)c3c2)cn1` [Compound P-0042, 1-cyclopropyl-N-[2-fluoro-3-[5-(1-methylpyrazol-4-yl)-1H-pyrrolo[2,3-b]pyridine-3-carbonyl]phenyl]methanesulfonamide] displayed an IC50 of under 0.1 µM.

As usually defined, the IC50 is the concentration that inhibits the measured activity by half.
